Laboratory results: patent US11292773B2, “Small molecule inhibitors of BCL-2-associated death promoter (BAD) phosphorylation” (NATIONAL UNIVERSITY OF SINGAPORE, priority 2017, dated 2022)

Test system: MCF7, BT474, Caov-3, Ishikawa, AsPC-1 and DLD-1 cells
Assay: NPB exposure with or without siRNA-mediated depletion of BAD (western blot, ApoTox-Glo)
Type: cell-based, human
Settings: 5 μM NPB
Method: (A) WB analysis was used to assess the levels of pBAD (Ser99) activity and BAD protein in MCF7, BT474, Caov-3, Ishikawa, AsPC-1, and DLD-1 cells after treatment with 5 μM NPB. Depletion of BAD expression was achieved using transient-transfection of small interfering (si)-RNA directed to the BAD transcript. Soluble whole cell extracts were run on an SDS-PAGE and immunoblotted as described in materials and methods. β-ACTIN was used as input control. Effects of NPB (5 μM) in MCF7, BT474, Caov-3, Ishikawa, AsPC-1, and DLD-1 cells. (B) Cell viability and (C) caspase 3/7 activities were evaluated using the ApoTox-GIo™ Triplex Assay Kit. All assays performed as described in methodology. Statistical significance was assessed by an unpaired two-tailed Student's t-test (P<0.05 was considered as significant) using GraphPad Prism5. The column represents mean of triplicate determinations; bars, ±SD. **P<0.001, *P<0.05. Note RFU, relative fluorescence unit; RLU, relative luminescence unit.
To confirm the functional specificity of NPB directed to the BAD protein, we further examined the effect of NPB exposure after siRNA-mediated depletion of BAD expression in 6 carcinoma cell lines (MCF7, BT474, Caov-3, Ishikawa, AsPC-1 and DLD-1). […] As described above, NPB treatment of the control transfected carcinoma cell lines decreased BAD phosphorylation (Ser99) compared to vehicle-treated cells. Concomitantly, exposure of the same carcinoma cell lines to NPB decreased cell viability and increased caspase 3/7 activity compared to vehicle-exposed cells.

[1] = control transfected carcinoma cell lines, vs vehicle

In the case of `O=C(NC1CCCC1)c1cccc(C(c2ccccc2O)N2CCN(c3cccc(Cl)c3Cl)CC2)c1` (stereo not shown) [NPB, N-cyclopentyl-3-((4-(2,3-dichlorophenyl)piperazin-1-yl)(2-hydroxyphenyl)methyl) benzamide], the “cell viability and caspase3/7 activity” value (carcinoma cell lines with depleted expression of BAD) is reported as “did not affect”, the “BAD phosphorylation (Ser99)” value [1] is reported as “decreased” and the “caspase 3/7 activity” value [1] is reported as “increased”. The cell viability [1] was “decreased”.
